Measured values as given in ChEMBL document CHEMBL1201862, “PubChem BioAssay data set” (2004).
Activity calls are given as the source filed them.

How the values were obtained:
[1] = Luminescence Cell-Based Dose Response HTS to Identify Inhibitors of 5'UTR Stem-Loop Driven Prion Protein mRNA Translation in H4 Neuroglioblastoma Cells. [Related pubchem assays: 1827 (Project Summary), 1813 (Primary HTS)]; type: functional
[2] = Vero E6 cell cytotoxicity, dose response, cytotoxicity control for non-replicating M. tuberculosis project, secondary assay (AID 492998); type: functional, VeroE6; settings: Vero C1008
[3] = inhibitors of SNCA 5'UTR-driven reporter translation, confirmation, H4 neuroglioma cells, luminescence (AID 1988); type: functional, cell-based
cells [4] = type: functional
cells [5] = type: functional, cell-based
[6] = inhibitors of firefly luciferase expression or activity, dose response, H4 neuroglioma cells, luminescence (AID 1990); type: functional, cell-based
cells [7] = type: functional, cell-based; remark: listed apart in the source
[8] = THP-1 cell cytotoxicity, dose response, cytotoxicity control for non-replicating M. tuberculosis project (AID 489025); type: functional
Cytochrome P450 3A4 = Cytochrome P450 3A4 (Homo sapiens, UniProt P08684);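 further: CYP3A4 tested as one member of a cytochrome P450 panel screen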
Cytochrome P450 2C9 = Cytochrome P450 2C9 (Homo sapiens, UniProt P11712)
Cytochrome P450 2D6 = Cytochrome P450 2D6 (Homo sapiens, UniProt P10635);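 further: CYP2D6 member of a cytochrome P450 panel assay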
[9] = target: SWI/SNF-related matrix-associated actin-dependent regulator of chromatin subfamily A member 2 (Homo sapiens, UniProt P51531); assay: Luminescence-based cell-based high throughput dose response assay to identify activators of the function of SWI/SNF related, matrix associated, actin dependent regulator of chromatin, subfamily a, member 2 (SMARCA2, BRM).; type: functional
[10] = Counterscreen for activators of the function of SWI/SNF related, matrix associated, actin dependent regulator of chromatin, subfamily a, member 2 (SMARCA2, BRM): Luminescence-based cell-based high throughput dose response assay to identify non-selective compounds using the VP16 reporter assay.; type: functional
Cytochrome P450 2C19 = Cytochrome P450 2C19 (Homo sapiens, UniProt P33261); assay: Cytochrome panel assay with activity outcomes. Panel member name: p450-cyp2c19 Compounds with AC50 equal or less than 10 uM are considered active; type: functional; settings: read-out: AC50
[11] = inhibitors of intracellular T. cruzi replication, confirmation, NIH3T3 host cells, beta-gal luminescence (AID 2044); type: functional, cell-based;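 further: intracellular parasites grown in NIH/3T3 mouse fibroblasts as host cells; luminescent beta-galactosidase reporter signal from transgenic T. cruzi replicating inside host cells; inhibitors lower the luminescence signal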
[12] = Counterscreen for AddAB inhibitors: absorbance-based bacterial cell-based high throughput dose response assay for inhibitors of bacterial viability. [Related pubchem assays (depositor defined):AID435030, AID449728, AID449731, AID488942, AID488955, AID488956]; type: functional
[13] = cytotoxicity toward NIH3T3 fibroblasts, dose response, counter-screen, cell-based, ATP luminescence, mouse fibroblasts (AID 2010); type: functional;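 further: cells exposed to compound for about 90 hours before reading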
Exodeoxyribonuclease V = target: T1, Exodeoxyribonuclease V (Escherichia coli (strain K12), UniProt P04993+P07648+P08394); assay: E. coli RecBCD inhibitors, dose response, counter-screen for AddAB inhibitor project, absorbance, V66 E. coli, mutant T4 phage (AID 492957); type: functional, cell-based, Escherichia coli str. K-12 substr. MG1655
T1 sequence (P04993 whole entry): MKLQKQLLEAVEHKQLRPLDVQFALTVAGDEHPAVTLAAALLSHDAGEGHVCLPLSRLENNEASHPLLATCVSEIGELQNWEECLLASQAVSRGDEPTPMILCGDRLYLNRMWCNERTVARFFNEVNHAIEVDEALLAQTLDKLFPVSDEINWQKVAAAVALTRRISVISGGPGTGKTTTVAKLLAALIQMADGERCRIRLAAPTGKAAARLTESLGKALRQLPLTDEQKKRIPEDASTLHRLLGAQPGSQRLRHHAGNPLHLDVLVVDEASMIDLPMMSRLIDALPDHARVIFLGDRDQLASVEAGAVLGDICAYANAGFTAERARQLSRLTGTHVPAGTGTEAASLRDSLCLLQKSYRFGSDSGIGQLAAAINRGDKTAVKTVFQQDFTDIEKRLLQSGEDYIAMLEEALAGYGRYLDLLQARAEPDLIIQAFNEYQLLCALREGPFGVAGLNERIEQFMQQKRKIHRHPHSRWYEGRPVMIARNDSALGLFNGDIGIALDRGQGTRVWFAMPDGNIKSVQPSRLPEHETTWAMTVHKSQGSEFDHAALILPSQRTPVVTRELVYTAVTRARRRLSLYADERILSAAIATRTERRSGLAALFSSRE
T1 sequence (P07648 whole entry): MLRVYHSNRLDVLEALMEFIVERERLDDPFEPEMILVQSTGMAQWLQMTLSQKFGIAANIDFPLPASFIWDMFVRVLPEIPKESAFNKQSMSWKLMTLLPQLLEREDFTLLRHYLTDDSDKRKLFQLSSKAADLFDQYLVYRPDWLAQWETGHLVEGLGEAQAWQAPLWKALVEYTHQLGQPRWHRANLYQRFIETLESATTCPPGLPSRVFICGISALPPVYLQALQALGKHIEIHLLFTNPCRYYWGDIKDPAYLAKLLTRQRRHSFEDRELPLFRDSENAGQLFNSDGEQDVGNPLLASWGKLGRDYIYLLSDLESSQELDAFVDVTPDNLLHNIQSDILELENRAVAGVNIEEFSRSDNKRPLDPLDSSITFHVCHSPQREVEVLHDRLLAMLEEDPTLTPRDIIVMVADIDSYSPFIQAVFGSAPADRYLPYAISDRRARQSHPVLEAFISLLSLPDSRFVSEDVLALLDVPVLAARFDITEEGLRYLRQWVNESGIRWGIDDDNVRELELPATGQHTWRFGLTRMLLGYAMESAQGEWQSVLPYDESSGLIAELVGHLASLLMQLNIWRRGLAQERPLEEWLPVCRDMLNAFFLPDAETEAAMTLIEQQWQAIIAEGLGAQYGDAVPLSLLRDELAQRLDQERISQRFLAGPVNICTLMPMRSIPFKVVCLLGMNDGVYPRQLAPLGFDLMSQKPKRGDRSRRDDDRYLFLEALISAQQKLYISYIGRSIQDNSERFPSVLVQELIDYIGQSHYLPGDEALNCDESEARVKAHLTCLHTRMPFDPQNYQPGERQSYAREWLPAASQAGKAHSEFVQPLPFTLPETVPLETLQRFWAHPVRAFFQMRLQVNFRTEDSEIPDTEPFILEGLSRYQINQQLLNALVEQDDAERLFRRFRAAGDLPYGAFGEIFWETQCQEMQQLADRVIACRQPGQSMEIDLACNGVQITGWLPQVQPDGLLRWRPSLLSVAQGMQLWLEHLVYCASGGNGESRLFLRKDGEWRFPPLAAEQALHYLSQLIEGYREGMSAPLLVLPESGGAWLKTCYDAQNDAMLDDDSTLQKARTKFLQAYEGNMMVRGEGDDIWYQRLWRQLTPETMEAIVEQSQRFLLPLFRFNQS
T1 sequence (P08394 whole entry): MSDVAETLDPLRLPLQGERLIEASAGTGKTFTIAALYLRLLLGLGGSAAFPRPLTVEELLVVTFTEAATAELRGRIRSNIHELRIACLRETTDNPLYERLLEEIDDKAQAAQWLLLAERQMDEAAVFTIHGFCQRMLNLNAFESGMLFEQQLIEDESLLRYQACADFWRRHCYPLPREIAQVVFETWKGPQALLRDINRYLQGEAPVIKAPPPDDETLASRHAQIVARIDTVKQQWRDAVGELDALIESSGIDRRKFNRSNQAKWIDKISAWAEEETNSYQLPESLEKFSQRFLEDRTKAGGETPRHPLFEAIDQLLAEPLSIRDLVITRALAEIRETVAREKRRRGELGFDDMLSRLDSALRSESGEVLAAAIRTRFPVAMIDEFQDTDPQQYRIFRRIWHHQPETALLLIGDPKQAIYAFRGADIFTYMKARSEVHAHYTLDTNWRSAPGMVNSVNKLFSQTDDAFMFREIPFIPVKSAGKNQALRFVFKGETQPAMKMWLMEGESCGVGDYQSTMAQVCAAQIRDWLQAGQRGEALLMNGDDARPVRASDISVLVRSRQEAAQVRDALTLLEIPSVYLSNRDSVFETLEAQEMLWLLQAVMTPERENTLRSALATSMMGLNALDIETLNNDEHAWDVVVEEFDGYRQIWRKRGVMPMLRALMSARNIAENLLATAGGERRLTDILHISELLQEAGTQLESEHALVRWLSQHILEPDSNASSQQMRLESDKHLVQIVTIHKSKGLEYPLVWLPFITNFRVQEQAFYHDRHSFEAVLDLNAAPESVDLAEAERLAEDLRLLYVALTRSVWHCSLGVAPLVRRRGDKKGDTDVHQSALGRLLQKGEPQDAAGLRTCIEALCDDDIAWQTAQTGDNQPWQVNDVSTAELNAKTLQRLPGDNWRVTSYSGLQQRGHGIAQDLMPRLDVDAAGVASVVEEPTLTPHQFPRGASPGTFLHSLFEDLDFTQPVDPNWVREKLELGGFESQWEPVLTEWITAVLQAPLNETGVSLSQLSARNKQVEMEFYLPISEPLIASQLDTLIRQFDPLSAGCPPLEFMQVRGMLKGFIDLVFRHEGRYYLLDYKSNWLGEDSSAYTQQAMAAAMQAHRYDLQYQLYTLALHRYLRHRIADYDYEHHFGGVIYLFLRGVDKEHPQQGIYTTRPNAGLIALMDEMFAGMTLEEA

INS1 = assay: beta cell apoptosis inhibitors, cytokine rescue, dose response, luminescence, retest (AID 449756); type: functional, cell-based; settings: Rattus norvegicus;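 further: cell death triggered by IL-1 beta plus TNF-alpha plus IFN-gamma mixture; protective hits raise ATP signal compared with cytokine alone wells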
HEK293 [14] = assay: cells; settings: Homo sapiens
HEK293 [15] = assay: cells; settings: Homo sapiens; remark: listed apart in the source
SUMO E1/E2 = SUMO E1/E2 (Homo sapiens, UniProt P63279+Q9UBE0+Q9UBT2); assay: SAR analysis of SUMOylation using HTRF in an in-Vitro dose response assay. [Related pubchem assays (depositor defined):AID2006, AID2011, AID2018, AID2069, AID2658]; type: functional
Mu-type opioid receptor = Mu-type opioid receptor (Homo sapiens, UniProt P35372); assay: (§1) Counterscreen for agonists of heterodimerization of the mu 1 (OPRM1) and delta 1 (OPRD1) opioid receptors: Luminescence-based cell-based high throughput dose response assay to identify agonists of OPRM1 homodimerization.; type: functional
[16] = target: Delta-type opioid receptor (Homo sapiens, UniProt P41143); assay: as §1, with “of OPRD1” for “of OPRM1”, “homodimerization. [Related pubchem assays (depositor defined):AID504326, AID504355, AID504692, AID504904, AID504905]” for “homodimerization.”; type: functional
[17] = target: 5-hydroxytryptamine receptor 5A (Homo sapiens, UniProt P47898); assay: Counterscreen for agonists of OPRM1-OPRD1 heterodimerization: luminescence-based cell-based high throughput dose response assay to identify agonists of 5-hydroxytryptamine (serotonin) 5A receptor (HTR5A). [Related pubchem assays (depositor defined):AID504326, AID504355, AID504692, AID504904, AID504905]; type: functional
Sequence of 5-hydroxytryptamine receptor 5A (P47898 whole entry): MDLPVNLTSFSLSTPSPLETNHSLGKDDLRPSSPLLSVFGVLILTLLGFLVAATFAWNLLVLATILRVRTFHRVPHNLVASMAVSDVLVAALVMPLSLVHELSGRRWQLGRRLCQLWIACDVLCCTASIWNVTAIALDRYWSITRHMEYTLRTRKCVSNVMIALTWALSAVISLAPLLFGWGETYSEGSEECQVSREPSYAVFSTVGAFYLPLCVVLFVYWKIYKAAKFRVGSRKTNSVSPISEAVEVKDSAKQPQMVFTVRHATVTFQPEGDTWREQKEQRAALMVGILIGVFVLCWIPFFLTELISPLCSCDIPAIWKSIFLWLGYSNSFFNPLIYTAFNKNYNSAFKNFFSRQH

Sequence of SUMO E1/E2 (Q9UBE0 whole entry): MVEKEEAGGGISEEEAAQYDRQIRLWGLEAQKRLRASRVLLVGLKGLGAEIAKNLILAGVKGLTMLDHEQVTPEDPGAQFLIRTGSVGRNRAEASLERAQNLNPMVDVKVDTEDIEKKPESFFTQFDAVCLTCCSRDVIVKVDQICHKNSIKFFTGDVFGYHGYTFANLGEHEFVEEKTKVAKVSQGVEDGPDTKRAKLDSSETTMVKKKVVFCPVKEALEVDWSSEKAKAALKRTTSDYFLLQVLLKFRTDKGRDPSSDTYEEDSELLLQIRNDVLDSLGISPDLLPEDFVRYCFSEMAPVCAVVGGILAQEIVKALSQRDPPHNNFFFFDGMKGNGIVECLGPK
Sequence of SUMO E1/E2 (Q9UBT2 whole entry): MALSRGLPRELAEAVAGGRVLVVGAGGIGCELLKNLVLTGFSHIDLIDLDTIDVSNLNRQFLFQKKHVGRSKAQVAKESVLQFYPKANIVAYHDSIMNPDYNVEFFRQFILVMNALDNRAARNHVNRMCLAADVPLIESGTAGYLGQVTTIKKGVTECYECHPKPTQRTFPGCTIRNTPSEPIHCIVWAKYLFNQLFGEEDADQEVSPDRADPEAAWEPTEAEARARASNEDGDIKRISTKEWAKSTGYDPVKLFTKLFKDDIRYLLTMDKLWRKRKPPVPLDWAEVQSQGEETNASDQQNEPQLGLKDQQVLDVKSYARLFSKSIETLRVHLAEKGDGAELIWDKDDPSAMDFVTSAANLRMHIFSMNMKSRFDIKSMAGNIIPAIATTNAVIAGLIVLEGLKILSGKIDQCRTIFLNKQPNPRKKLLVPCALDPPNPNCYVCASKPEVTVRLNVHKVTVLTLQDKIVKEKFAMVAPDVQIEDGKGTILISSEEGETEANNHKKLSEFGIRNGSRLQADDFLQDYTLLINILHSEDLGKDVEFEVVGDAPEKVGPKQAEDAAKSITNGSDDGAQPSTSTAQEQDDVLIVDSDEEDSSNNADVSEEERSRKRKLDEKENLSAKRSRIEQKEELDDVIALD
Sequence of SUMO E1/E2 (P63279 whole entry): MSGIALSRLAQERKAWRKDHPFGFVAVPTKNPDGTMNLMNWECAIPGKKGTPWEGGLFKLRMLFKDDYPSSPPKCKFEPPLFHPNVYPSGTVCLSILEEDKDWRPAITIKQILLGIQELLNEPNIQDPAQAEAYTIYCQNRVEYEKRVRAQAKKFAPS
Sequence of Cytochrome P450 2D6 (P10635 whole entry): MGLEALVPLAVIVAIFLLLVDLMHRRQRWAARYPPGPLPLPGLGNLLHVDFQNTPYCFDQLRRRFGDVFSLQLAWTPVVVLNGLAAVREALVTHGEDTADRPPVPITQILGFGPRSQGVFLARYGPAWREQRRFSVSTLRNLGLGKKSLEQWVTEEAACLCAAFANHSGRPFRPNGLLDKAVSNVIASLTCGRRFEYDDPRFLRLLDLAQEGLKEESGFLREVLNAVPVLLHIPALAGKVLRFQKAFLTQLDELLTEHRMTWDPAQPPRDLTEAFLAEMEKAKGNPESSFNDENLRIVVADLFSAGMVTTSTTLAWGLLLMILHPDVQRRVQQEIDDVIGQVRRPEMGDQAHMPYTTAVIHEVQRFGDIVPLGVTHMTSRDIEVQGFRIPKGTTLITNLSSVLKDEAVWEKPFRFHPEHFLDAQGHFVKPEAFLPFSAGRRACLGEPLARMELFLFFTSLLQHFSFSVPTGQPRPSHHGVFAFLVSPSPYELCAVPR
Sequence of Mu-type opioid receptor (P35372 whole entry): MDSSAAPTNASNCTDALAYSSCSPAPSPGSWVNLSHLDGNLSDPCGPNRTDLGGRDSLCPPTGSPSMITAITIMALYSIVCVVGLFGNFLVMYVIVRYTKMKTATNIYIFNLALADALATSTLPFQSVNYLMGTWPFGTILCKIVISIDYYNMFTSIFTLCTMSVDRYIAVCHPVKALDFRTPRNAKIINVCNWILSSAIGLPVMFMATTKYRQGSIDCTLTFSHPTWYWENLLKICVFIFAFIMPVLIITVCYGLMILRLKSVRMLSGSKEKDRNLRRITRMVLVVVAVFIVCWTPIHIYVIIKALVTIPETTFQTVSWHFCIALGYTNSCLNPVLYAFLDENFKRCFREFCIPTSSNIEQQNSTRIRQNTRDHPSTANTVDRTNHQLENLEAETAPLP
Sequence of Cytochrome P450 3A4 (P08684 whole entry): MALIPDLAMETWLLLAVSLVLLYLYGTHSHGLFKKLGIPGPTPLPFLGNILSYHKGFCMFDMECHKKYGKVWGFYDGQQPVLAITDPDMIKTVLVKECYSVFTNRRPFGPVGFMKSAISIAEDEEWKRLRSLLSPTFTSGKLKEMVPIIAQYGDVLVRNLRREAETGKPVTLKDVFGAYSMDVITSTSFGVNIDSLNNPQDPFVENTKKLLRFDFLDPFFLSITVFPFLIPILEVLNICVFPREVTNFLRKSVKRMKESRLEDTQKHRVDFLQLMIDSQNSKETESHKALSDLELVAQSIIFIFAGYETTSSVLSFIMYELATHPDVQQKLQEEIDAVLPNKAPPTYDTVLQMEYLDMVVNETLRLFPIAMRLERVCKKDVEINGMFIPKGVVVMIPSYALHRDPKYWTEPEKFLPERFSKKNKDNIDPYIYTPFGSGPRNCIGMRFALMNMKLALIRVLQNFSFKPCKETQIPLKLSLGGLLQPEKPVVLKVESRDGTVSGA
Sequence of Delta-type opioid receptor (P41143 whole entry): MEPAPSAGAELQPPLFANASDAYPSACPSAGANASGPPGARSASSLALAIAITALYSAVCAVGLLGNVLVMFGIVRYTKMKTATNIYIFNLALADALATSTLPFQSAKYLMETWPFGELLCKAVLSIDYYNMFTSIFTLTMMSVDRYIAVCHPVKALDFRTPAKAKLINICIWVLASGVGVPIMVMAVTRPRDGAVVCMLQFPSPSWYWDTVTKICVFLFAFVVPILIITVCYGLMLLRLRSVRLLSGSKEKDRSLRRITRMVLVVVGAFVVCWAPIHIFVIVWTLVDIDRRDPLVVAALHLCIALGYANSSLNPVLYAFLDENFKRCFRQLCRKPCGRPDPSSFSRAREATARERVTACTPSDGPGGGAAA
Sequence of Cytochrome P450 2C9 (P11712 whole entry): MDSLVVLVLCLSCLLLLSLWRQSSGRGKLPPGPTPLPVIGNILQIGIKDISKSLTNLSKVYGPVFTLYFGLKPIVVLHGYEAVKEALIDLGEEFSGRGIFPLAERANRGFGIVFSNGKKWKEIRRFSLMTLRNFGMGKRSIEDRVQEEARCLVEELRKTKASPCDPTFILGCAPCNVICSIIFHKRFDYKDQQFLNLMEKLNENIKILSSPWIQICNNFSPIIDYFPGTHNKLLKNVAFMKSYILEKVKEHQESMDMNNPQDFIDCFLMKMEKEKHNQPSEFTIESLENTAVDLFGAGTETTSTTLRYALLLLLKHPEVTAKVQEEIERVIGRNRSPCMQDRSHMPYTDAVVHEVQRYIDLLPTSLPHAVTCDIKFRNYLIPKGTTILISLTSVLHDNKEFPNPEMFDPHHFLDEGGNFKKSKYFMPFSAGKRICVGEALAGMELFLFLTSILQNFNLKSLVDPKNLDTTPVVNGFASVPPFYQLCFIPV
Sequence of Cytochrome P450 2C19 (P33261 whole entry): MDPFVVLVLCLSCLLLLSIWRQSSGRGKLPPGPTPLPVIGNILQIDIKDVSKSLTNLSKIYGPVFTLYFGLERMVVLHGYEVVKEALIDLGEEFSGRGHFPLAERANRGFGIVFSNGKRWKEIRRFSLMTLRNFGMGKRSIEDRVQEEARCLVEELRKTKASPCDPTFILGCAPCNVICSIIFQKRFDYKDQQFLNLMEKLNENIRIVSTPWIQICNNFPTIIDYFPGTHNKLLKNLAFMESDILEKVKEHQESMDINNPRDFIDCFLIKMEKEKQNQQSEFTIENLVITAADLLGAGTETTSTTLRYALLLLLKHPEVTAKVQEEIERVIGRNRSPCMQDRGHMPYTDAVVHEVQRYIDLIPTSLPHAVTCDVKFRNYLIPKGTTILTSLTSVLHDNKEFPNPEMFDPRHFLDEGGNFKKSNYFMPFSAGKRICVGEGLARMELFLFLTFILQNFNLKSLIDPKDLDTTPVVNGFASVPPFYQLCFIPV

SMILES: CC(=O)Nc1nc2ccccc2n1CCOc1ccccc1Cl
- EC50 [1]: > 120 µM (not active)
- CC50 [2]: 17.5 µM (active)
- EC50 [3]: > 120 µM (not active)
- IC50 (cells [4]): 2.72 µM (active)
- EC50 (cells [5]): > 350 µM (not active)
- EC50 [6]: 16.7 µM (active)
- EC50 (cells [7]): 56.5 µM (active)
- CC50 [8]: > 40 µM (active)

SMILES: CCOC(=O)c1c(C)c(C(=O)NCCN2CCOCC2)c(C)n1CC
- AC50 (Cytochrome P450 3A4): 25.1 µM (inconclusive)
- AC50 (Cytochrome P450 2C9): inconclusive
- AC50 (Cytochrome P450 2D6): inconclusive

SMILES: CCS(=O)(=O)c1c([N+](=O)[O-])ncn1C
- EC50 [9]: > 91.1 µM (inactive)
- CC50 [2]: > 20 µM (active)
- IC50 (cells [4]): 16.2 µM (active)
- EC50 [10]: > 91.1 µM (inactive)
- CC50 [8]: > 40 µM (active)

SMILES: NC(=O)/C(=N\O)c1ccccc1
- AC50 (Cytochrome P450 2C19): 0.00562 µM (inconclusive)
- AC50 (Cytochrome P450 2D6): inconclusive

SMILES: Cc1cc(N/N=C/c2ccc(O)cc2O)nc(-c2ccccc2O)n1
- EC50 [11]: 1.16 µM (active)
- IC50 [12]: > 119 µM (inactive)
- EC50 [13]: 4.8 µM (active)
- IC50 (Exodeoxyribonuclease V): > 119 µM (inactive)
- AC50 (INS1): 0.734 µM (active)
- EC50 (cells [5]): > 350 µM (not active)
- EC50 (cells [7]): 8.62 µM (active)

SMILES: CN(C)C(=S)N=c1ssc(=S)n1Cc1ccco1
- EC50 (HEK293 [14]): > 59.6 µM (inactive)
- EC50 (HEK293 [15]): > 59.6 µM (inactive)

SMILES: Cc1c(Br)c([N+](=O)[O-])nn1C(C)C(=O)NCc1ccco1 (stereo unspecified)
- IC50 [12]: > 119 µM (inactive)
- IC50 (Exodeoxyribonuclease V): > 119 µM (inactive)

SMILES: O=C(NC(NC(=S)Nc1ccc(Cl)cc1)C(Cl)(Cl)Cl)c1ccco1 (stereo unspecified)
- IC50 [12]: > 119 µM (inactive)
- IC50 (Exodeoxyribonuclease V): > 119 µM (inactive)

SMILES: Cc1ccc(C=Nc2ccccc2C(N)=O)s1
- IC50 (SUMO E1/E2): 22.2 µM (active)

SMILES: Fc1ccc(C2Nc3ccccc3C3C=CCC32)cc1 (stereo unspecified)
- IC50 (SUMO E1/E2): > 100 µM (inactive)

SMILES: CCNS(=O)(=O)c1ccc(NC(=O)Nc2ccc3c(c2)OCO3)cc1
- EC50 (Mu-type opioid receptor): 42.8 µM (inactive)
- EC50 [16]: > 92.5 µM (inactive)
- EC50 [17]: > 92.5 µM (inactive)
